From patent US20230165970A1, “COMPOSITIONS AND METHODS FOR THE TREATMENT OF BACTERIAL INFECTIONS” (priority 2017, published 2023)
*1 amine or outer side, *2 acyl side, *3 side chain or, on linkers, in order; H or OH if unused. Where a SMILES comes first, the peptide text is derived from it. Bridges are numbered along the chain shown (N, C = ends). Roman numbers before positions name the chains, in order. [ ]: non-standard residue; d: D form. The star is where a group is joined. X5 = C#CCOCCOCCOCCOCCN1C[C@@H](C(=O)[*:1])[C@H](C(=O)[*:2])C1; X2 = O=C([C@@H](N[*:1])[C@H](O)CCC(F)(F)F)[*:2]; Propargyl(OCH2CH2)4CO = C#CCOCCOCCOCCOCCC(=O)*; azaDab = NCCN(N[*:1])C(=O)[*:2]; Aoc(2) = CCCCCC[C@H](N)C(=O)O; Nle = CCCC[C@H](N)C(=O)O; Dab = NCC[C@H](N)C(=O)O; azaGly = NNC(=O)O

Experiments:
E. coli 25922 = conditions: (A) Bacteremia (E. coli); 5 mg/kg IV, single, +1 hr; survival after three days; N=3
Method: In vivo screening of selected compounds was accomplished in an E. coli bacteremia model (N=3). Efficacy was assessed in an animal model of infection using CD-1 mice by evaluating bacteremia in immune competent mice challenged with 2× the LD95 of E. coli 25922 (dosed qd, intraperitoneally (IP) at T+1 hour, survival endpoint).
Colistin (COL) and Int-17 were dosed at 0.3 mg/kg and Int-41 was dosed at 3.0 mg/kg. Percent survival was determined 72 hours after bacterial challenge. Compounds with MICs against E. coli 25922 of less than 4 μg/ml were evaluated in the bacteremia model.
Int-115 and Int-118 were evaluated for potency in a lethal model of bacteremia. […] Test articles were dissolved in 1× PBS and injected IV at a dose volume of 10 ml/kg one hour following bacterial challenge. Animals were monitored twice daily and mortality scored over three days.
CD-1 mice were used for bacteremia, C57BL/6J mice for endotoxemia. The endpoint was survival after three days for both models.

[1] = tested on: Ec COL^R LPS: colistin-resistant (MCR-1) strain (AR0349); assay: Lethal mouse endotoxemia model (LD95 purified LPS IP); assay type: in vivo, C57BL/6J mice; conditions: (D) Endotoxemia (Ec COL^R LPS); 5 mg/kg IV, single, -1 hr; survival after three days
Method: (§1) Studies (B)-(D) shown in Table 22 summarizes the efficacy of compounds in lethal models of endotoxemia. In these models 6 week old C57I/6J immune competent mice (Jackson Laboratory) were challenged IP with purified lipopolysaccharide (LPS) in PBS at an LD95. For all studies, LPS was obtained from Sigma (catalog numbers in the table footnote) or were purified using a kit obtained from iNtRON Biotechnology Inc. (cat #17141). One hour prior to LPS challenge mice were dosed with test articles as indicated (Table 22). The results of these studies indicate that compounds are able to neutralize the lethal effects of LPS in a severe endotoxemia/sepsis model.
End point was survival after 3 days. Ec: E. coli 0111:B34, Sigma cat #L4130; Ab: Acinetobacter baumannii 5075; Kp: Klebsiella pneumonia 10, Sigma cat #L4268; Ng: Neisseria gonorrhoeae 19424; Ec 026:B86, Sigma cat #L2762; Pm: Proteus mirabilis, Sigma cat #SMB00704; Sm: Serratia marcescens, Sigma cat #L6016; Pa: Pseudomonas aeruginosa 10. […] Purified LPS used for all endotoxemia studies and if not denoted by a Sigma catalog number the LPS was purified in-house using an iNtRON #17141 purification kit. *Delayed death, at the time Fc only animals reached 100% mortality all Conjugate 41 mice were still alive.

Ec LPS: E. coli 0111:B4 = assay: as above; assay type: in vivo, C57BL/6J mice; conditions: (B) Endotoxemia (Ec LPS); 1 mg/kg IV, single, -1 hr; survival after three days
Method: as §1
End point was survival after 3 days. Ec: E. coli 0111:[…] (Sigma cat #L4130); Ab: Acinetobacter baumannii 5075 (iNtRON cat #17141); Ng: Neisseria gonorrhoeae 19424 (iNtRON cat #17141); COL: colistin.
End point was survival after 3 days. Ec: E. coli 0111:B34, Sigma cat #L4130; Ab: Acinetobacter baumannii 5075; Kp: Klebsiella pneumonia 10, Sigma cat #L4268; Ng: Neisseria gonorrhoeae 19424; Ec 026:B86, Sigma cat #L2762; Pm: Proteus mirabilis, Sigma cat #SMB00704; Sm: Serratia marcescens, Sigma cat #L6016; Pa: Pseudomonas aeruginosa 10. […]

Compound: C#CCOCCOCCOCCOCCC(=O)N[C@@H](CCCCCC)C(=O)N[C@@H](CCN)C(=O)N[C@H](C(=O)N[C@@H](CCN)C(=O)N[C@H]1CCNC(=O)[C@H]([C@@H](C)O)NC(=O)[C@H](CCN)NC(=O)[C@H](CCN)NC(=O)[C@H](CC(C)C)NC(=O)[C@@H](Cc2ccccc2)NC(=O)[C@H](CCN)NC1=O)[C@H](O)CCC(F)(F)F [Int-118] ({Propargyl(OCH2CH2)4CO}-[Aoc(2)][Dab][X2][Dab][Dab][Dab][dF]L[Dab][Dab]T; lactam 5-C)
- % survival (E. coli 25922): 66%

Compound: C#CCOCCOCCOCCOCCN1C[C@@H](C(=O)N[C@@H](CCCC)C(=O)N[C@@H](CCN)C(=O)N[C@H](C(=O)NNC(=O)N[C@H]2CCNC(=O)[C@H]([C@@H](C)O)NC(=O)[C@H](CCN)NC(=O)[C@H](CCN)NC(=O)[C@H](CC(C)C)NC(=O)[C@@H](Cc3ccccc3)NC(=O)[C@H](CCN)NC2=O)[C@@H](C)O)[C@H](C(=O)N[C@@H](CCCC)C(=O)N[C@@H](CCN)C(=O)N[C@H](C(=O)NNC(=O)N[C@H]2CCNC(=O)[C@H]([C@@H](C)O)NC(=O)[C@H](CCN)NC(=O)[C@H](CCN)NC(=O)[C@H](CC(C)C)NC(=O)[C@@H](Cc3ccccc3)NC(=O)[C@H](CCN)NC2=O)[C@@H](C)O)C1 [Int-120] (I: [Nle][Dab]T[azaGly][Dab][Dab][dF]L[Dab][Dab]T / II: [Nle][Dab]T[azaGly][Dab][Dab][dF]L[Dab][Dab]T; lactam I:5-I:C, II:5-II:C; linker I:N-II:N via X5)
- % survival [1]: 100%

Compound: C#CCOCCOCCOCCOCCC(=O)N[C@@H](CCCCCC)C(=O)N[C@@H](CCN)C(=O)N[C@H](C(=O)NN(CCN)C(=O)N[C@H]1CCNC(=O)[C@H]([C@@H](C)O)NC(=O)[C@H](CCN)NC(=O)[C@H](CCN)NC(=O)[C@H](CC(C)C)NC(=O)[C@@H](Cc2ccccc2)NC(=O)[C@H](CCN)NC1=O)[C@@H](C)O [Int-129] ({Propargyl(OCH2CH2)4CO}-[Aoc(2)][Dab]T[azaDab][Dab][Dab][dF]L[Dab][Dab]T; lactam 5-C)
- % survival (Ec LPS: E. coli 0111:B4): 100%
